Results on two compounds are retold here after BindingDB's records for doi:10.1002/cbic.200800600 (Parc De Recerca Biomedica De Barcelona, 2009).

Assay in all cases: In Vitro Kinase Assay
Details in all cases: pH 7.5

For test [1], the target named is Aurora kinase B (Homo sapiens, UniProt Q96GD4). As to the method: (§1) The IC50 for the different compounds was determined with Invitrogen Z'-LYTE kinase assay kit Ser/Thr 1 peptide PV3174 by following the manufacturer's instructions. To determine the IC50 of receptor tyrosine kinase, an assay based on the ELISA principle with kinases from Biomol (N-terminally fused to GST), POD-coupled antibody from Calbiochem (PY20)) and BM chem chemiluminescence ELISA substrate from Roche was performed.

In test [2] the target is Fibroblast growth factor receptor 1 (Homo sapiens, UniProt P11362). As to the method:
as §1

For test [3], the target named is Angiopoietin-1 receptor (Homo sapiens, UniProt Q02763). As to the method: as §1
In test [4] the target is T1, Aurora kinase A (Homo sapiens, UniProt O14965).
T1 sequence (O14965 whole entry): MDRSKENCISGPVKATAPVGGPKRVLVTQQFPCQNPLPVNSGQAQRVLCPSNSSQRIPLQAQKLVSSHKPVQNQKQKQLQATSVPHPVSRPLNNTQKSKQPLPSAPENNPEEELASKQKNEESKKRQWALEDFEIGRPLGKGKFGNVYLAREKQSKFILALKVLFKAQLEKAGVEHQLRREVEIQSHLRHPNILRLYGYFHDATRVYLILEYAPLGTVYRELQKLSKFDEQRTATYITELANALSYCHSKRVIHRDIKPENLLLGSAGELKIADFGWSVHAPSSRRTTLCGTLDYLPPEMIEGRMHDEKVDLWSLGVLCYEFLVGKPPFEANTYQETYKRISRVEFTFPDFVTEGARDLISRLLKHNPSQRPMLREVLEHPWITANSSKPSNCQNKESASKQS
As to the method:
as §1

For test [5], the target named is Vascular endothelial growth factor receptor 3 (Homo sapiens, UniProt P35916). As to the method:
as §1

Test [6] deals with Epidermal growth factor receptor (Homo sapiens, UniProt P00533). As to the method: as §1
Test [7] concerns the target Insulin-like growth factor 1 receptor (Homo sapiens, UniProt P08069). As to the method: as §1
Test [8] concerns the target Vascular endothelial growth factor receptor 2 (Homo sapiens, UniProt P35968). As to the method:
as §1

pIC50: −log10 of the molar value.

By pIC50 is commonly meant the IC50 on a negative log10 scale, so that one unit is a factor of ten. Read a high pIC50 as a low IC50.

Vascular endothelial growth factor receptor 3, sequence (P35916 whole entry): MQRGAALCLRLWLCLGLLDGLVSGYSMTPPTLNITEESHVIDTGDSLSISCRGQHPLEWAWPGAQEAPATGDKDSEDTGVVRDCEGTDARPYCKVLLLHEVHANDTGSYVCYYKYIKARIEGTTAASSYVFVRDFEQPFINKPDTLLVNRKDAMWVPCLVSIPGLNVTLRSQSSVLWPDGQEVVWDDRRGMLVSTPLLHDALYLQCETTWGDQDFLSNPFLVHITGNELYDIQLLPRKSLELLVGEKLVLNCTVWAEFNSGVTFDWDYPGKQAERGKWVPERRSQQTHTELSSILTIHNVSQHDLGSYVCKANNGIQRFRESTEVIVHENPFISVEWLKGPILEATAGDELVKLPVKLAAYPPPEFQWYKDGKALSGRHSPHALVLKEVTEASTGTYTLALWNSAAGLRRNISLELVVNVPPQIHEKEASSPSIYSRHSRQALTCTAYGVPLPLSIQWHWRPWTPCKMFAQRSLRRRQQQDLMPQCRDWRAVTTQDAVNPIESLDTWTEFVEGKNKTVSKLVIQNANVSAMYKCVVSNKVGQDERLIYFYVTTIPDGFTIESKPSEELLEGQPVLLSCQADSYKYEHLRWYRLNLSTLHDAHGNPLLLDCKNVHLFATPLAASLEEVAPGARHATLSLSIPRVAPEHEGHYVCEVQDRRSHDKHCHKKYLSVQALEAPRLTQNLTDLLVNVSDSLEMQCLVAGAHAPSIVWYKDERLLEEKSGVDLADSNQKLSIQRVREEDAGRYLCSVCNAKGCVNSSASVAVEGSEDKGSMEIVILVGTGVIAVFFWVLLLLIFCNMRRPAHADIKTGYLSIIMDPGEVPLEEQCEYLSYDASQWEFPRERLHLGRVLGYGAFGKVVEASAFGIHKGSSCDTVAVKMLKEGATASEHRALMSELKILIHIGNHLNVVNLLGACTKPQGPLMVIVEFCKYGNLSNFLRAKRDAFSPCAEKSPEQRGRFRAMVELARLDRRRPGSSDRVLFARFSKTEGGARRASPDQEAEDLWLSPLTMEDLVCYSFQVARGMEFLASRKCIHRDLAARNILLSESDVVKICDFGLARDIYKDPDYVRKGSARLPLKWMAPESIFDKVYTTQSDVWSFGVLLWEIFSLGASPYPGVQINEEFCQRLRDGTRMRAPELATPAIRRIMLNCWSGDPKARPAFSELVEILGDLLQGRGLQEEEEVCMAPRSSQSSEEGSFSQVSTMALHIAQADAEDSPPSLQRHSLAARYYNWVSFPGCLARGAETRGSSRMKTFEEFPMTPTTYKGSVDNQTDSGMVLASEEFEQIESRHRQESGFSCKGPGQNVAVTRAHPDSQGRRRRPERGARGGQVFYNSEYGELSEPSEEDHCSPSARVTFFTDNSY
Aurora kinase B, sequence (Q96GD4 whole entry, the tested form may be a part): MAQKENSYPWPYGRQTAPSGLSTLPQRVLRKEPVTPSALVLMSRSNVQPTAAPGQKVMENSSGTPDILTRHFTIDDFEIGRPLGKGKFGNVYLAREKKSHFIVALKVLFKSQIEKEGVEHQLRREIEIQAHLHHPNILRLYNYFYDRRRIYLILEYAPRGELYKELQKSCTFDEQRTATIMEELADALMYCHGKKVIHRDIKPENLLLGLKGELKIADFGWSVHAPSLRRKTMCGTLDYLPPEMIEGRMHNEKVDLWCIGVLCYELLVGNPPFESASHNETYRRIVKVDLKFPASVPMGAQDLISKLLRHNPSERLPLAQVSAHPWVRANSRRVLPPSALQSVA
Angiopoietin-1 receptor, sequence (Q02763 whole entry): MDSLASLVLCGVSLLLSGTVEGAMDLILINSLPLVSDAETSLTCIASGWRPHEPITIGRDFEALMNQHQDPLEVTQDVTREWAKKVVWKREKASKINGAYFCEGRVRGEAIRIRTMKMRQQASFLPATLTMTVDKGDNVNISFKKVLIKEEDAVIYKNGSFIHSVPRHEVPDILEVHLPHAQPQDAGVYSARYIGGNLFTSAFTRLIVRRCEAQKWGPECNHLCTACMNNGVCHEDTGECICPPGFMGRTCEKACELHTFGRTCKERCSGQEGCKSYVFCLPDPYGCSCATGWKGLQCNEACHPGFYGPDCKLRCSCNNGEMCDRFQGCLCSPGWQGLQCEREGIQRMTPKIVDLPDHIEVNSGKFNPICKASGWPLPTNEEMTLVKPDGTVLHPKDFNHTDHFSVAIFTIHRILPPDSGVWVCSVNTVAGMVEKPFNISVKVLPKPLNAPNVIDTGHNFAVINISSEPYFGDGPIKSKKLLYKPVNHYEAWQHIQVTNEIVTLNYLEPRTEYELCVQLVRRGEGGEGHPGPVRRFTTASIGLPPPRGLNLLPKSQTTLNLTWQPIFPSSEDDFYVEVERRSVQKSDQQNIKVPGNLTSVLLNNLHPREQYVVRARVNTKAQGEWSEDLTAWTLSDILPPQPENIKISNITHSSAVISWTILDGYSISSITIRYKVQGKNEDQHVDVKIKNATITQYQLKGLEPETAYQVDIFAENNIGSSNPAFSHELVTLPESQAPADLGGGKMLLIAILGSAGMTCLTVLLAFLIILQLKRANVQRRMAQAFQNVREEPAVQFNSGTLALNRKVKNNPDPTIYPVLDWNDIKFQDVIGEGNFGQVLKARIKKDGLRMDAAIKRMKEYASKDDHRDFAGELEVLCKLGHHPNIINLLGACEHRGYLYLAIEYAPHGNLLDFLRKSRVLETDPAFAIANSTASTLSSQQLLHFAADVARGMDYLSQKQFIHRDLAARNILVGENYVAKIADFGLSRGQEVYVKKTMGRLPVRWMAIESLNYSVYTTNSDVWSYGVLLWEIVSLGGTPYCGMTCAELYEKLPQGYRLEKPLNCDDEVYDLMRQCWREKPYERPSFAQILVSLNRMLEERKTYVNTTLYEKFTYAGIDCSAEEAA
Fibroblast growth factor receptor 1, sequence (P11362 whole entry): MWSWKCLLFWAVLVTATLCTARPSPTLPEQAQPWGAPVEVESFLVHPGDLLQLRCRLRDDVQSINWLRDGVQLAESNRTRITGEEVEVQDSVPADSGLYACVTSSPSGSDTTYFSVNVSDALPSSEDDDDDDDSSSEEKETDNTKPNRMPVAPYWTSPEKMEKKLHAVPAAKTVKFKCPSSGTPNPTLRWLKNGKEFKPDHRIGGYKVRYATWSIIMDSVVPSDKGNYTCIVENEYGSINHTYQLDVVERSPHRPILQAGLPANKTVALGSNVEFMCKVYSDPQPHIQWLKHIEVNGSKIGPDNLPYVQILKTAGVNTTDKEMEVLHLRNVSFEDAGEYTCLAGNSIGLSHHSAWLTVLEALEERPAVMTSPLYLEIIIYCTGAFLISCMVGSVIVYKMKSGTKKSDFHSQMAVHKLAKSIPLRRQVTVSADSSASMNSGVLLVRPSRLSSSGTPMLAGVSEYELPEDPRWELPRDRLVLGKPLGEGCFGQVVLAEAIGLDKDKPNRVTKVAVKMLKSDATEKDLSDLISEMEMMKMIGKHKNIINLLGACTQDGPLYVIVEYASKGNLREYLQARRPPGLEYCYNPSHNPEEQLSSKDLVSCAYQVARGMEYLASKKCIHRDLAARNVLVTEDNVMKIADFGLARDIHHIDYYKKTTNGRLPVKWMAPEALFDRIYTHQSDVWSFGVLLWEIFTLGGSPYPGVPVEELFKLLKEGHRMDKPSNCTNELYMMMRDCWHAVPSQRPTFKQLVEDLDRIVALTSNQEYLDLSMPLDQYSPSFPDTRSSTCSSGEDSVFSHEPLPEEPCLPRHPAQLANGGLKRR
Epidermal growth factor receptor, sequence (P00533 whole entry): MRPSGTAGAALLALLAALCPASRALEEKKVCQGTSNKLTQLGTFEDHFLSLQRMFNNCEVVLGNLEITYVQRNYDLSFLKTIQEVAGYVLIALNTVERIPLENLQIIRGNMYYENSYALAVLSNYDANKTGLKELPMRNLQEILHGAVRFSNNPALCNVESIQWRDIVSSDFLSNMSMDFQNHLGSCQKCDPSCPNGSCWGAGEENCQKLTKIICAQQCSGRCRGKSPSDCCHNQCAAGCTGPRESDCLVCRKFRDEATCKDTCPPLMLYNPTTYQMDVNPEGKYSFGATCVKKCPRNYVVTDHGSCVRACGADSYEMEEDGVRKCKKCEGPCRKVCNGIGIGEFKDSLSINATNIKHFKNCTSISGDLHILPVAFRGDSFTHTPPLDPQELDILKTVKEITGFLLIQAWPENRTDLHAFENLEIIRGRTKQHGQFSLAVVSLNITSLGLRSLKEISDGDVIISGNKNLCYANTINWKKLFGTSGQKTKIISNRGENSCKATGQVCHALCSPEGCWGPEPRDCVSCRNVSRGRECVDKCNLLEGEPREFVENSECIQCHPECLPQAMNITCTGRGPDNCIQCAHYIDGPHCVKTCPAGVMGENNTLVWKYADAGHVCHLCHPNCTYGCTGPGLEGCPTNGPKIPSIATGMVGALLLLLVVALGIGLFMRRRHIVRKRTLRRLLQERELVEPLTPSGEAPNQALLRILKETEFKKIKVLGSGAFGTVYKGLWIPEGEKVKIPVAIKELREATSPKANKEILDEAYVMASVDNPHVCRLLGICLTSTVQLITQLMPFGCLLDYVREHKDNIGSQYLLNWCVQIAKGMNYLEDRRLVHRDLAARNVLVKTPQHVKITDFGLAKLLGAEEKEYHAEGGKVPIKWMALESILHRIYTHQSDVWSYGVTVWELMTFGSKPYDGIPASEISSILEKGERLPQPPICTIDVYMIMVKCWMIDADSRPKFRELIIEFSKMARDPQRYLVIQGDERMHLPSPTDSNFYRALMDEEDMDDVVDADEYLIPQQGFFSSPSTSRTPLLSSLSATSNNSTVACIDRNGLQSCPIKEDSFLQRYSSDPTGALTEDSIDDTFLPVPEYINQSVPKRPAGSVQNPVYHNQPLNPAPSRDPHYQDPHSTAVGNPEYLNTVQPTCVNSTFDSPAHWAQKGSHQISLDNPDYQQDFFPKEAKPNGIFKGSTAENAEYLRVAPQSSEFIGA

Turning to `CC(C)Nc1nc(-c2ccco2)nc2ccc(C=CC(C)(C)O)cc12` [TC-34], the pIC50 is 4.79 in test [1]; below 4.00 in test [2]; below 4.00 in test [3]; 5.72 in test [4]; 5.38 in test [5]; below 4.00 in test [6]. In test [7], the pIC50 was 4.38.

In the case of `CC(C)Nc1nc(-c2ccco2)nc2ccc(C#CCO)cc12` [TC-28], the pIC50 was below 4.00 in test [1]; below 4.00 in test [2]; below 4.00 in test [3]; 5.57 in test [4]; below 4.00 in test [5]; below 4.00 in test [8]. For the same compound, the pIC50 in test [6] and in test [7] was below 4.00 each time.
